Assay results: the NIST ThermoML archive (doi:10.1016/j.fluid.2014.11.020)
± gives the expanded uncertainty stated by the source.

Experiment: activity coefficient (dimensionless); of the first substance listed, at infinite dilution; xn = mol fraction of the nth substance listed
Settings: Liquid, Chromatography, x1 = 0

`C1CCCCCC1` [cycloheptane] + CCCCCCCCn1cc[n+](COCCCOC[n+]2ccn(CCCCCCCC)c2C)c1C.O=S(=O)([N-]S(=O)(=O)C(F)(F)F)C(F)(F)F.O=S(=O)([N-]S(=O)(=O)C(F)(F)F)C(F)(F)F showed an activity coefficient (323.15 K) of 5.84 ± 0.4, an activity coefficient (333.15 K) of 7.77 ± 0.53 and an activity coefficient (343.15 K) of 10.2 ± 0.7.

`CCO` [ethanol] + CCCOC[n+]1ccn(C)c1.O=S(=O)([N-]S(=O)(=O)C(F)(F)F)C(F)(F)F gave an activity coefficient (323.15 K) of 1.51 ± 0.1, an activity coefficient (333.15 K) of 1.36 ± 0.09 and an activity coefficient (343.15 K) of 1.26 ± 0.08.

In the case of `CO` [methanol] + CCCOC[n+]1ccn(C)c1.N#C[N-]C#N, the activity coefficient (323.15 K) is reported as 0.44 ± 0.04, the activity coefficient (333.15 K) is reported as 0.44 ± 0.04 and the activity coefficient (343.15 K) is reported as 0.45 ± 0.04.

Molecule `c1ccncc1` [pyridine] + CCCCCCCCn1cc[n+](COCCC)c1C.N#C[N-]C#N has an activity coefficient (323.15 K) of 0.66 ± 0.05, an activity coefficient (333.15 K) of 0.59 ± 0.04 and an activity coefficient (343.15 K) of 0.54 ± 0.04.

Work on `CCO` [ethanol] + CN(C)c1cc[n+](COCCCOC[n+]2ccc(N(C)C)cc2)cc1.O=S(=O)([N-]S(=O)(=O)C(F)(F)F)C(F)(F)F.O=S(=O)([N-]S(=O)(=O)C(F)(F)F)C(F)(F)F yielded an activity coefficient (323.15 K) of 1.21 ± 0.08, an activity coefficient (333.15 K) of 1.11 ± 0.07 and an activity coefficient (343.15 K) of 1.02 ± 0.06.

`C1COCCO1` [1,4-dioxane] + Cn1cc[n+](COCCCOC[n+]2ccn(C)c2)c1.O=S(=O)([N-]S(=O)(=O)C(F)(F)F)C(F)(F)F.O=S(=O)([N-]S(=O)(=O)C(F)(F)F)C(F)(F)F showed an activity coefficient (323.15 K) of 0.37 ± 0.03, an activity coefficient (333.15 K) of 0.39 ± 0.03 and an activity coefficient (343.15 K) of 0.39 ± 0.03.

Work on `Cc1ccccc1C` [1,2-dimethylbenzene] + CCCOC[n+]1ccn(Cc2ccccc2)c1.O=S(=O)([N-]S(=O)(=O)C(F)(F)F)C(F)(F)F yielded an activity coefficient (323.15 K) of 1.58 ± 0.1, an activity coefficient (333.15 K) of 1.23 ± 0.08 and an activity coefficient (343.15 K) of 1.22 ± 0.08.

Work on `CO` [methanol] + CCCOC[n+]1ccn(C)c1.F[B-](F)(F)F yielded an activity coefficient (323.15 K) of 1.29 ± 0.08, an activity coefficient (333.15 K) of 1.2 ± 0.08 and an activity coefficient (343.15 K) of 1.11 ± 0.07.

`C[N+](=O)[O-]` [nitromethane] + Cn1cc[n+](COCCCOC[n+]2ccn(C)c2)c1.O=S(=O)([N-]S(=O)(=O)C(F)(F)F)C(F)(F)F.O=S(=O)([N-]S(=O)(=O)C(F)(F)F)C(F)(F)F showed an activity coefficient (323.15 K) of 0.31 ± 0.03, an activity coefficient (333.15 K) of 0.31 ± 0.03 and an activity coefficient (343.15 K) of 0.29 ± 0.03.

With `C#CCCCCC` [1-heptyne] + CCCCCCCCn1cc[n+](COCCCOC[n+]2ccn(CCCCCCCC)c2C)c1C.N#C[N-]C#N.N#C[N-]C#N the activity coefficient (323.15 K) was 2.1 ± 0.14, the activity coefficient (333.15 K) was 2.12 ± 0.14 and the activity coefficient (343.15 K) was 2.15 ± 0.15.

With `c1ccsc1` [thiophene] + CCCOC[n+]1ccn(Cc2ccccc2)c1.F[B-](F)(F)F the activity coefficient (323.15 K) was 1.33 ± 0.09, the activity coefficient (333.15 K) was 1.27 ± 0.08 and the activity coefficient (343.15 K) was 1.25 ± 0.08.

Molecule `C[N+](=O)[O-]` [nitromethane] + N#C[N-]C#N.N#C[N-]C#N.c1ccc(Cn2cc[n+](COCCCOC[n+]3ccn(Cc4ccccc4)c3)c2)cc1 has an activity coefficient (323.15 K) of 0.86 ± 0.06, an activity coefficient (333.15 K) of 0.85 ± 0.05 and an activity coefficient (343.15 K) of 0.87 ± 0.06.

Molecule `c1ccsc1` [thiophene] + CCCCCCCCn1cc[n+](COCCCOC[n+]2ccn(CCCCCCCC)c2C)c1C.N#C[N-]C#N.N#C[N-]C#N has an activity coefficient (323.15 K) of 0.49 ± 0.04, an activity coefficient (333.15 K) of 0.49 ± 0.04 and an activity coefficient (343.15 K) of 0.51 ± 0.04.

With `ClC(Cl)(Cl)Cl` [tetrachloromethane] + CCCOC[n+]1ccc(N(C)C)cc1.O=S(=O)([N-]S(=O)(=O)C(F)(F)F)C(F)(F)F the activity coefficient (323.15 K) was 2.01 ± 0.14, the activity coefficient (333.15 K) was 2.08 ± 0.14 and the activity coefficient (343.15 K) was 1.95 ± 0.13.

`CCCCCCCCCCC` [undecane] + CN(C)c1cc[n+](COCCCOC[n+]2ccc(N(C)C)cc2)cc1.O=S(=O)([N-]S(=O)(=O)C(F)(F)F)C(F)(F)F.O=S(=O)([N-]S(=O)(=O)C(F)(F)F)C(F)(F)F gave an activity coefficient (323.15 K) of 114 ± 7.8, an activity coefficient (333.15 K) of 99 ± 6.8 and an activity coefficient (343.15 K) of 88.6 ± 6.1.

With `CC(C)O` [propan-2-ol] + CCCOC[n+]1ccn(C)c1.O=S(=O)([N-]S(=O)(=O)C(F)(F)F)C(F)(F)F the activity coefficient (323.15 K) was 1.9 ± 0.13, the activity coefficient (333.15 K) was 1.51 ± 0.1 and the activity coefficient (343.15 K) was 1.39 ± 0.09.

Molecule `ClC(Cl)(Cl)Cl` [tetrachloromethane] + Cn1cc[n+](COCCCOC[n+]2ccn(C)c2)c1.O=S(=O)([N-]S(=O)(=O)C(F)(F)F)C(F)(F)F.O=S(=O)([N-]S(=O)(=O)C(F)(F)F)C(F)(F)F has an activity coefficient (323.15 K) of 3.21 ± 0.22, an activity coefficient (333.15 K) of 3.03 ± 0.21 and an activity coefficient (343.15 K) of 2.29 ± 0.16.

In the case of `CCCCCCCCCCC` [undecane] + CCCCCCCCn1cc[n+](COCCCOC[n+]2ccn(CCCCCCCC)c2C)c1C.N#C[N-]C#N.N#C[N-]C#N, the activity coefficient (323.15 K) is reported as 24.4 ± 1.7, the activity coefficient (333.15 K) is reported as 23.4 ± 1.6 and the activity coefficient (343.15 K) is reported as 22.4 ± 1.5.

In the case of `CCCC(C)=O` [pentan-2-one] + CCCOC[n+]1ccn(C)c1.N#C[N-]C#N, the activity coefficient (323.15 K) is reported as 2.24 ± 0.15, the activity coefficient (333.15 K) is reported as 2.27 ± 0.15 and the activity coefficient (343.15 K) is reported as 2.32 ± 0.16.

`C1CCCCCC1` [cycloheptane] + CN(C)c1cc[n+](COCCCOC[n+]2ccc(N(C)C)cc2)cc1.O=S(=O)([N-]S(=O)(=O)C(F)(F)F)C(F)(F)F.O=S(=O)([N-]S(=O)(=O)C(F)(F)F)C(F)(F)F showed an activity coefficient (323.15 K) of 27 ± 1.9, an activity coefficient (333.15 K) of 34.9 ± 2.4 and an activity coefficient (343.15 K) of 42.8 ± 2.9.

For `ClC(Cl)Cl` [trichloromethane] + CN(C)c1cc[n+](COCCCOC[n+]2ccc(N(C)C)cc2)cc1.O=S(=O)([N-]S(=O)(=O)C(F)(F)F)C(F)(F)F.O=S(=O)([N-]S(=O)(=O)C(F)(F)F)C(F)(F)F, the activity coefficient (323.15 K) was 0.67 ± 0.05, the activity coefficient (333.15 K) was 0.69 ± 0.05 and the activity coefficient (343.15 K) was 0.7 ± 0.05.
